Values quoted from earlier work in US12263157B2, “Aldosterone synthase inhibitors for treating chronic kidney disease” (Boehringer Ingelheim International GmbH, priority 2021, dated 2025).

Legend:
[1] = test system: people with type 2 diabetes
[2] = test system: patients with heart failure with reduced ejection fraction; details: overall trial population
[3] = test system: patients with diabetic kidney disease; details: on top of standard of care

| SMILES | HR for the composite outcome of doubling of creatinine, the need to start kidney replacement therapy, or renal death ([1]; exploratory analysis, 95% CI 0.40-0.75) | reduction of the incidence of the composite outcome of doubling of creatinine, the need to start kidney replacement therapy, or renal death ([1]; exploratory analysis, people with type 2 diabetes) [%] | risk of hyperkalaemia or acute kidney injury ([1]; regardless of baseline ACEi or ARB use) | reduction of the risk of the exploratory composite renal endpoint (chronic dialysis, kidney transplant, or sustained reduction in eGFR) [2] [%] | relative risk reduction for the composite endpoint of doubling of serum creatinine, ESRD or renal/CV death [3] [%] |
| --- | --- | --- | --- | --- | --- |
| OC[C@H]1O[C@@H](c2ccc(Cl)c(Cc3ccc(O[C@H]4CCOC4)cc3)c2)[C@H](O)[C@@H](O)[C@@H]1O [empagliflozin] | 0.54 | 46 | no evidence of an increased risk | 50 | – |
| Cc1ccc([C@@H]2O[C@H](CO)[C@@H](O)[C@H](O)[C@H]2O)cc1Cc1ccc(-c2ccc(F)cc2)s1 [canagliflozin] | – | – | – | – | 30 |
